We go through 13 compounds from patent US5686486A, “4-hydroxy-benzopyran-2-ones and 4-hydroxy-cycloalkyl[b]pyran-2-ones useful to treat retroviral infections” (priority 1995, dated 1997).

The target of assay [1] is T1, HIV-1 protease (Human immunodeficiency virus type 1 group M subtype B, UniProt P04585). Put plainly: biochemical. As to conditions: read-out: HIV-1 FITC KI. The protocol: Determination of Ki values utilizes the same materials and equipment employed for percent inhibition studies. Two-fold serial dilutions are made for a given inhibitor from 2, 3 or 4 starting concentrations with a total of 24, 36 or 48 individual inhibitor concentrations. These dilutions are performed utilizing the BioMek robotics system. The assay consists of 10 μL of 40 nM HIV-1 protease, 10 μL of the various inhibitor concentrations, and 20 μL of 200 μM substrate (40 μL total). The reaction is allowed to proceed for 90 min at room temperature, terminated with 40 μL of avidin beads and processed (supra vide). An inhibitor with a known Ki is run in parallel to verify the validity of the assay. The data is processed utilizing a computer program employing a nonlinear least square analysis of the data to generate the Ki values.

Assay [2] has as its target T1, HIV-1 protease. Put plainly: biochemical. The conditions noted are these: for inhibition at 0.41 µM: read-out: HIV-1 Protease % Inhib, dose 0.410 uM; for inhibition at 1.23 µM: read-out: HIV-1 Protease % Inhib, dose 1.230 uM; for inhibition at 3.7 µM: read-out: HIV-1 Protease % Inhib, dose 3.700 uM; for inhibition at 11 µM: read-out: HIV-1 Protease % Inhib, dose 11.000 uM; for inhibition at 33 µM: read-out: HIV-1 Protease % Inhib, dose 33.000 uM; for inhibition at 100 µM: read-out: HIV-1 Protease % Inhib, dose 100.000 uM; for inhibition at 0.123 µM: read-out: HIV-1 Protease % Inhib, dose 0.123 uM; for inhibition at 0.37 µM: read-out: HIV-1 Protease % Inhib, dose 0.370 uM; for inhibition at 1.1 µM: read-out: HIV-1 Protease % Inhib, dose 1.100 uM; for inhibition at 3.3 µM: read-out: HIV-1 Protease % Inhib, dose 3.300 uM; for inhibition at 10 µM: read-out: HIV-1 Protease % Inhib, dose 10.000 uM; for inhibition at 30 µM: read-out: HIV-1 Protease % Inhib, dose 30.000 uM. In a few lines: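 Biotinylated, FITC-labeled peptide substrate (20 μl of 0.2 μM) incubated with HIV-1 protease (10 μl of 0.1 μM) and compound in 0.1 M sodium acetate pH 5.5, 1.0 M NaCl, 0.05% NP-40, 1 h, room temperature, dark. Streptavidin beads then capture uncleaved substrate; filtered labeled product read by fluorescence, giving percent inhibition.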

Structures are written as SMILES.

Turning to `O=c1oc2c(c(O)c1C(c1ccccc1)C1CC1)CCCCCCC2` (stereo not drawn) [Example 117, 3-(Cyclopropylphenylmethyl)-6,7,8,9,10,11-hexahydro-4-hydroxy-cyclonona[b]pyran-2(5H)-one], on HIV-1 protease [1], the Ki came out at 37 nM. At HIV-1 protease [2], the inhibition at 0.41 µM came out at 80.1%, the inhibition at 1.23 µM was determined as 94%, the inhibition at 3.7 µM was found to be 101% and the inhibition at 11 µM turned out to be 114%. At HIV-1 protease [2], the inhibition at 33 µM worked out at 107% and the inhibition at 100 µM was 100%.

Turning to `O=C(Nc1cccc(C(c2c(O)c3c(oc2=O)CCCCCC3)C2CC2)c1)OCc1ccccc1` (stereo not drawn) [Example 119, Carbamic acid, [3-[cyclopropyl(5,6,7,8,9,10-hexahydro-4-hydroxy-2-oxo-2H-cycloocta[b]pyran-3-yl)methyl]phenyl]-, phenylmethyl ester], the Ki at HIV-1 protease [1] was determined as 257 nM. Besides, at HIV-1 protease [2], the inhibition at 0.41 µM was 27.5%, the inhibition at 1.23 µM is 55.4%, the inhibition at 3.7 µM was determined as 82.5% and the inhibition at 11 µM was 97.7%. Also, on HIV-1 protease [2], the inhibition at 33 µM turned out to be 96.8% and the inhibition at 100 µM was 101%.

Turning to `CC(C)N=C(Nc1cccc(C(c2c(O)c3c(oc2=O)CCCCCC3)C2CC2)c1)NC(C)C` (stereo not drawn) [Example 120, N-(3-(cyclopropyl-(4-hydroxy-2-oxo-5,6,7,8,9,10-hexahydro-2H-cycloocta[b]pyran-3-yl)-methyl)-phenyl)-N',N"-diisopropyl-guanidine], at HIV-1 protease [1], the Ki is 982 nM. Besides, on HIV-1 protease [2], the inhibition at 0.41 µM was less than 10%, the inhibition at 1.23 µM was 22.2%, the inhibition at 3.7 µM is 54.6% and the inhibition at 11 µM is 80.7%. Moreover, on HIV-1 protease [2], the inhibition at 33 µM stood at 101% and the inhibition at 100 µM came out at 106%.

`O=c1oc2c(c(O)c1C(c1ccccc1)C1CC1)CCCCCC2CC1CC1` (stereo not drawn) [Example 121, 10-Cyclopropylmethyl-3-(cyclopropyl-phenyl-methyl)-4-hydroxy-5,6,7,8,9,10-hexahydro-cycloocta[b]pyran-2-one]: the Ki on HIV-1 protease [1] came out at 24 nM. Besides, at HIV-1 protease [2], the inhibition at 0.123 µM amounted to 37.1%, the inhibition at 0.37 µM amounted to 74.9%, the inhibition at 1.1 µM came to 99.5% and the inhibition at 3.3 µM turned out to be 106%. On HIV-1 protease [2], the inhibition at 10 µM was found to be 108% and the inhibition at 30 µM is 109%.

With `CCC(c1ccccc1)c1c(O)c2c(oc1=O)C(Cc1ccccc1)CCCCC2` (stereo not drawn) [Example 122], the Ki on HIV-1 protease [1] came out at 175 nM. At HIV-1 protease [2], the inhibition at 0.41 µM came out at 35.1%, the inhibition at 1.23 µM was 63.5%, the inhibition at 3.7 µM was 91.7% and the inhibition at 11 µM is 98%. At HIV-1 protease [2], the inhibition at 33 µM was determined as 93.2% and the inhibition at 100 µM turned out to be 94.3%.

Turning to `O=c1oc2c(c(O)c1C(C1CC1)C1CC1)CCCCCC2Cc1ccccc1` (stereo not drawn) [Example 123, 10-Benzyl-3-dicyclopropylmethyl-4-hydroxy-5,6,7,8,9,10-hexahydro-cycloocta[b]pyran-2-one], the Ki on HIV-1 protease [1] worked out at 260 nM. In addition, at HIV-1 protease [2], the inhibition at 0.41 µM was found to be 23.7%, the inhibition at 1.23 µM is 59.1%, the inhibition at 3.7 µM came out at 82.5% and the inhibition at 11 µM was found to be 88.3%. At HIV-1 protease [2], the inhibition at 33 µM came out at 83.9% and the inhibition at 100 µM turned out to be 78.9%.

With `CCC(c1ccccc1)c1c(O)c2c(oc1=O)C(CC1CC1)CCC2` (stereo not drawn) [Example 124, 8-Cyclopropylmethyl-4-hydroxy-3-(1-phenyl-propyl)-5,6,7,8-tetrahydro-chromen-2-one], the Ki on HIV-1 protease [1] came to 1040 nM. Besides, at HIV-1 protease [2], the inhibition at 0.41 µM is less than 10%, the inhibition at 1.23 µM amounted to 32.4%, the inhibition at 3.7 µM was found to be 65.6% and the inhibition at 11 µM was found to be 81.6%. Further, at HIV-1 protease [2], the inhibition at 33 µM is 88.2% and the inhibition at 100 µM turned out to be 89.4%.

As to `O=c1oc2c(c(O)c1C(c1ccccc1)C1CC1)CCCCC2CC1CC1` (stereo not drawn) [Example 125, 9-Cyclopropylmethyl-3-(cyclopropyl-phenyl-methyl)-4-hydroxy-6,7,8,9-tetrahydro-5-H-cyclohepta[b]pyran-2-one], on HIV-1 protease [1], the Ki was 24 nM. For the same compound, at HIV-1 protease [2], the inhibition at 0.41 µM was found to be 101%, the inhibition at 1.23 µM is 108%, the inhibition at 3.7 µM worked out at 108% and the inhibition at 11 µM is 108%. Moreover, at HIV-1 protease [2], the inhibition at 33 µM is 102% and the inhibition at 100 µM was 105%.

With `CCC(c1ccccc1)c1c(O)c2c(oc1=O)C(C)CCCCC2` (stereo not drawn) [Example 126, 4-Hydroxy-10-methyl-3-(1-phenyl-propyl)-5,6,7,8,9,10-hexahydro-cycloocta[b]pyran-2-one], the Ki at HIV-1 protease [1] amounted to 331 nM. In addition, at HIV-1 protease [2], the inhibition at 0.41 µM is 25.9%, the inhibition at 1.23 µM came out at 59%, the inhibition at 3.7 µM was 89.8% and the inhibition at 11 µM came out at 96.7%. Moreover, at HIV-1 protease [2], the inhibition at 33 µM amounted to 100% and the inhibition at 100 µM worked out at 95%.

For `CCC1CCCCCc2c1oc(=O)c(C(c1ccccc1)C1CC1)c2O` (stereo not drawn) [Example 127, 3-(Cyclopropyl-phenyl-methyl)-10-ethyl-4-hydroxy-5,6,7,8,9,10-hexahydro-cycloocta[b]pyran-2-one], at HIV-1 protease [1], the Ki came out at 33 nM. At HIV-1 protease [2], the inhibition at 0.123 µM came to 52.3%, the inhibition at 0.37 µM came to 92.5%, the inhibition at 1.1 µM stood at 112% and the inhibition at 3.3 µM is 115%. At HIV-1 protease [2], the inhibition at 10 µM came to 117% and the inhibition at 30 µM stood at 111%.

As to `CCCC1CCCCCc2c1oc(=O)c(C(c1ccccc1)C1CC1)c2O` (stereo not drawn) [Example 128, 3-(Cyclopropyl-phenyl-methyl)-4-hydroxy-10-propyl-5,6,7,8,9,10-hexahydro-cycloocta[b]pyran-2-one], the Ki on HIV-1 protease [1] is 26 nM. Moreover, at HIV-1 protease [2], the inhibition at 0.123 µM amounted to 32.5%, the inhibition at 0.37 µM turned out to be 85.6%, the inhibition at 1.1 µM amounted to 102% and the inhibition at 3.3 µM turned out to be 112%. Also, at HIV-1 protease [2], the inhibition at 10 µM was determined as 107% and the inhibition at 30 µM amounted to 102%.

`CCCCC1CCCCCc2c1oc(=O)c(C(c1ccccc1)C1CC1)c2O` (stereo not drawn) [Example 129, 10-Butyl-3-(cyclopropyl-phenyl-methyl)4-hydroxy-5,6,7,8,9,10-hexahydro-cycloocta[b]pyran-2-one]: the Ki on HIV-1 protease [1] was 31 nM. For the same compound, on HIV-1 protease [2], the inhibition at 0.123 µM came out at 23.2%, the inhibition at 0.37 µM worked out at 67.8%, the inhibition at 1.1 µM was found to be 96.5% and the inhibition at 3.3 µM was 106%. On HIV-1 protease [2], the inhibition at 10 µM was determined as 117% and the inhibition at 30 µM amounted to 120%.

For the compound `O=c1oc2c(c(O)c1C(c1ccccc1)C1CC1)CCCCCC2CC1CCCCO1` (stereo not drawn) [Example 130, 3-(Cyclopropyl-phenyl-methyl)-4-hydroxy-10-(tetrahydro-pyran-2-ylmethyl)-5,6,7,8,9,10-hexahydro-cycloocta[b]pyran-2-one], the Ki on HIV-1 protease [1] stood at 119 nM. Moreover, at HIV-1 protease [2], the inhibition at 0.37 µM came out at 14.7%, the inhibition at 1.1 µM worked out at 54%, the inhibition at 3.3 µM was 88.6% and the inhibition at 10 µM was 104%. Moreover, the inhibition at 30 µM on HIV-1 protease [2] stood at 112%.
